For 17 molecules, IC50 results are on record in patent US20240174639A1, “PYRIDINE DERIVATIVES USEFUL AS HCN2 MODULATORS” (King's College London, priority 2021, published 2024).

Structures are written as SMILES. pIC50: −log10 of the molar value. Structures can show the parent of a compound that is named as a salt.

Common to all, as to format: cell-based
Experiment [1] has as its target T1, HCN2 (Homo sapiens, UniProt Q9UL51).
T1 sequence (Q9UL51 1-889): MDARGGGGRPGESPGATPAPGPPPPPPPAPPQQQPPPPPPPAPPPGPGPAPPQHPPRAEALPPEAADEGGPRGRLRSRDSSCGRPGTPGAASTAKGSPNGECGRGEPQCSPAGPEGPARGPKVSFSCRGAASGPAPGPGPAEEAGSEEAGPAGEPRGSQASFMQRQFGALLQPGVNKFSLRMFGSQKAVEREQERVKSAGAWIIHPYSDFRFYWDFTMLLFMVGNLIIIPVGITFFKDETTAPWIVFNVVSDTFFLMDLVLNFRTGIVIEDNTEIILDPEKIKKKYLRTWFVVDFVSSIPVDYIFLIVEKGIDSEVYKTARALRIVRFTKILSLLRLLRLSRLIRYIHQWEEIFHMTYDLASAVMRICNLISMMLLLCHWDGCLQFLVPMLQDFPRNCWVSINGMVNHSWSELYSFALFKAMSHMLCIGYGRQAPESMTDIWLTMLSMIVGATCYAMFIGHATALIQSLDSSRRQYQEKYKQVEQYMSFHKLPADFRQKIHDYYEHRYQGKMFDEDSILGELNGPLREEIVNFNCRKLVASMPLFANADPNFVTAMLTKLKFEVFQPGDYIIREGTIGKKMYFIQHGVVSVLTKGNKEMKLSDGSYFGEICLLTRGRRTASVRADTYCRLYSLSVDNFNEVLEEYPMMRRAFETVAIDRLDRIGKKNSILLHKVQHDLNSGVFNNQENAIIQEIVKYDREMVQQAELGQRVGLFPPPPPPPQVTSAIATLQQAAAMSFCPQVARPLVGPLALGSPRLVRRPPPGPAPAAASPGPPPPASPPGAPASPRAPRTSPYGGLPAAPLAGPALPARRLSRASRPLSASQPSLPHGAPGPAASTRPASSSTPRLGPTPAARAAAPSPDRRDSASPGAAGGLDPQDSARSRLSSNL
As to the kind of experiment: HCN2 assay using the Sophion Qube (Example 50B). As to conditions: Sophion Qube protocol (SQ). Here is the method: Solutions for recording HCN currents were:
For HCN1 and HCN2 the cells were held at −30 mV and then stepped to −110 mV for 2 seconds before stepping back to −30 mV, this represents 1 experimental sweep. This voltage protocol was applied every 20 seconds for the duration of the experiment. Both the vehicle (0.3% DMSO) and full block (3 mM CsCl) addition periods were applied for 10 experimental sweeps each. The compound addition period was applied for 30 sweeps.
The currents evoked by the step to −110 mV (HCN1 and HCN2) or −130 mV (HCN4) were measured for the analysis of the percentage inhibition by test compounds. The current amplitudes were measured by subtracting metric A from metric B (see FIG. 2) with inhibition calculated by normalising to the vehicle addition (0.3% DMSO) and full inhibition by 3 mM CsCl in the same well.
In total, compound was applied to the well for 600 seconds.

Experiment [2] deals with T1, HCN2. The experiment in a line: HCN2 assay using PatchXpress 7000A (Example 50A). Conditions: PatchXpress protocol (PX). The source says: (§1) Solutions for recording HON currents were:
For HCN1 and HCN2, the pulse protocol involved stepping from a holding potential of −30 mV to −110 mV (see FIG. 1A) for 2 seconds to evoke the current. The membrane voltage was then stepped back to −30 mV for a further 8 seconds. This sequence was evoked repeatedly every 10 seconds throughout the experiment, starting prior to drug (Control A) and during cumulative additions of 5 increasing compound concentrations, then finally a 100% inhibiting concentration of cesium chloride (CsCl, 3 mM).
(§2) The peak inward current measured at the end of the pulse to −110 mV (HCN1 and HCN2) or −130 mV (HCN4) was measured and any leak current subtracted to calculate the HCN current. The HCN current amplitude was measured after each control or compound addition and normalized to the control amplitude (Control A).
(§3) All experiments were performed at room temperature (approximately 22° C.).
(§4) Each test compound concentration was applied to the cell for seven (7) minutes, at which point the next cumulative concentration was applied. 3 mM CsCl was applied to each cell for 2 minutes at the end of each experiment (Control B) to determine 100% inhibition level of the HCN current.

The target of the next experiment is T2, HCN4 (Homo sapiens, UniProt Q9Y3Q4).
T2 sequence (Q9Y3Q4 1-1203): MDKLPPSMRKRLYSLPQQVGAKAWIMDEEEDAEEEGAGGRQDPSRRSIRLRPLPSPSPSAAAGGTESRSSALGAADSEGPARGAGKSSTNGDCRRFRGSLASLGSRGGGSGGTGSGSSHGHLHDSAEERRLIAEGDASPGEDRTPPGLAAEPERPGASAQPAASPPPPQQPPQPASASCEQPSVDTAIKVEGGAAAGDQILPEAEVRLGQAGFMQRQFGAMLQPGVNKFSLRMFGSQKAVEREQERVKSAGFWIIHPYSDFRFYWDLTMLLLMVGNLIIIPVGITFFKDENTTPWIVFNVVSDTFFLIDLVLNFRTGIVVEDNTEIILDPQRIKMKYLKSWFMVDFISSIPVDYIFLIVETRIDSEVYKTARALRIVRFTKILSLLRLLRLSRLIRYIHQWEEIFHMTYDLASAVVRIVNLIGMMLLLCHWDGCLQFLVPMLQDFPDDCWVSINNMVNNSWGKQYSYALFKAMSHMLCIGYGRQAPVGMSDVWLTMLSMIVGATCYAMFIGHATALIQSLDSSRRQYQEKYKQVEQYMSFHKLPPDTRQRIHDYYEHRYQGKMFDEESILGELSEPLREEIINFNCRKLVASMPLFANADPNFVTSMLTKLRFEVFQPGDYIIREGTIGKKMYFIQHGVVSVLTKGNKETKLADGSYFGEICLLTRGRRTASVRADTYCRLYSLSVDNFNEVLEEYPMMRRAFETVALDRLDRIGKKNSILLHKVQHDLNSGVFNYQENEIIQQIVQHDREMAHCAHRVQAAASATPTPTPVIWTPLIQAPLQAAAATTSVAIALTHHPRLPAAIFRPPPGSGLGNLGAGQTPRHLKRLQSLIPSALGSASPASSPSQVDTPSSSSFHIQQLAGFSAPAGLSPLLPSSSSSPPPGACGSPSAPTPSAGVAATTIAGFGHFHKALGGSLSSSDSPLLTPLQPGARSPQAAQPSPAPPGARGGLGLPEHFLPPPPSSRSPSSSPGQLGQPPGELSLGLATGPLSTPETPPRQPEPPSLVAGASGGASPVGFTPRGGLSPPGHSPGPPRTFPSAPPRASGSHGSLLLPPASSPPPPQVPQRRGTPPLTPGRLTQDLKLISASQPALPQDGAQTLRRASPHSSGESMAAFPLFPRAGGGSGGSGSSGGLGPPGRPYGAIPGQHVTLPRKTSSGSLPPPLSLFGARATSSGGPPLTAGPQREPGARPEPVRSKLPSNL
As to the kind of experiment: HCN4 assay using PatchXpress 7000A (Example 50A). As to conditions: PatchXpress protocol (PX). Here is the method:
as §1
For HCN4, the pulse protocol involved stepping from a holding potential of −30 mV to −130 mV (see FIG. 1B) for 4 seconds to evoke the current.
as §2, §3, §4

As for `Cc1ccc(F)c(C[C@H](N)c2ncccc2-n2ncc3cc(F)ccc32)n1` [Example 34, (S)-1-[3-(5-Fluoro-1H-indazole-1-yl)pyridine-2-yl]-2-(3-fluoro-6-methylpyridine-2-yl)-ethan-1-amine hydro-chloride], the negative-log IC50 (pIC50) (as a rule, the negative decadic logarithm of the IC50, by convention in mol/L) on HCN2 [1] was 5.35.

For the molecule `N[C@@H](Cc1ncccc1F)c1ncccc1-n1ncc2cc(C(F)(F)F)ccc21` [Example 40, (S)-1-[3-(5-Trifluoro-methyl-1H-indazole-1-yl)pyridine-2-yl]-2-(3-fluoropyridine-2-yl)-ethan-1-amine hydro-chloride], on HCN2 [1], the pIC50 is 4.93.

At HCN2 [1], `N#Cc1ccc(F)c(C[C@H](N)c2ncccc2-n2ncc3cc(Br)ccc32)n1` [Example 43, (S)-6-{2-Amino-2-[3-(5-bromo-1H-indazol-1-yl)pyridine-2-yl-ethyl}-5-fluoropyr-idine-2-carbonitrile hydrochloride] showed a negative logarithm of the IC50 (pIC50) of 6.11.

With `Cc1ccc(C#N)nc1C[C@H](N)c1ncccc1-n1ncc2cc(C(F)(F)F)ccc21` [Example 33, (S)-6-{2-Amino-2-[3-(5-trifluoromethyl-1H-indazol-1-yl)pyridine-2-yl]ethyl}-5-methyl-pyridine-2-carbonitrile hydrochloride], the pIC50 on HCN2 [1] is 5.31. Compared with the last molecule, the pIC50 is 0.80 log units lower.

As to `COc1ccc2c(cnn2-c2cccnc2[C@@H](N)Cc2ncccc2F)c1` [Example 32, (S)-2-(3-fluoropyridine-2-yl)-1-[3-(5-methoxy-1H-indazole-1-yl)-pyridine-2-yl]ethan-1-amine hydrochloride], the pIC50 on HCN2 [1] is 4.54. Compared with the last molecule, the pIC50 is 0.77 log units lower.

Take `Cc1nc(C[C@H](N)c2ncccc2-n2ncc3ccccc32)ccc1F` [Example 20, (S)-1-[3-(1H-indazole-1-yl)pyridine-2-yl]-2-(5-fluoro-6-methyl-pyridine-2-yl)ethan-1-amine hydrochloride]: the values for the negative logarithm of the IC50 (pIC50) against HCN2 [2] and at HCN4 were 6.05 and 4.89, respectively.

On to `COc1ccc2c(cnn2-c2cccnc2[C@@H](N)Cc2nc(C#N)ccc2F)c1` [Example 37], for which the pIC50 at HCN2 [1] is 5.17.

Turning to `N#Cc1ccc(F)c(C[C@H](N)c2ncccc2-n2ncc3ccccc32)n1` [Example 23, (S)-6-{2-[3-(1H-ind-azol-1-yl)pyridine-2-yl]-2-aminoethyl}-5-fluoropyridine-2-carbonitrile formate], the figures for the pIC50 against HCN2 [2] and on HCN4 were 6.74 and 5.12, respectively.

For the molecule `N#Cc1nc(C[C@H](N)c2ncccc2-n2ncc3cc(Br)ccc32)ccc1F` [Example 46, (S)-6-{2-Amino-2-[3-(5-bromo-1H-indazol-1-yl)pyridine-2-yl]-ethyl}-3-fluoropyr-idine-2-carbonitrile hydrochloride], the pIC50 against HCN2 [1] is 5.92.

Regarding `N#Cc1ccc2c(cnn2-c2ccccc2[C@@H](N)Cc2ccccn2)c1` [Example 3, (S)-1-{2-[1-Amino-2-(pyridine-2-yl)ethyl]-phenyl}-1H-indazole-5-carbonitrile hydro-chloride], the figures for the negative-log IC50 (pIC50) at HCN2 [2] and against HCN4 were 5.46 and under 4.52, respectively.

For `N[C@@H](Cc1ccccn1)c1ccccc1-n1ncc2cc(Br)ccc21` [Example 1, (S)-1-[2-(5-Bromo-1H-indazol-1-yl)phenyl]-2-(pyridine-2-yl)ethane-1-amine hydrochloride], the figures for the pIC50 on HCN2 [2] and against HCN4 were 6.05 and 5.47, respectively.

Consider `N[C@@H](Cc1ccccn1)c1ccccc1-n1ncc2cnccc21` [Example 7, (S)-1-[2-(1H-pyrazolo-[4,3-c]pyridine-1-yl)-phenyl]-2-(pyridine-2-yl)ethan-1-amine hydrochloride], for which the pIC50 against HCN2 [2] was 5.15; against HCN4, under 4.52.

As to `N[C@@H](Cc1ccc(F)cn1)c1ncccc1-n1ncc2ccccc21` [Example 18, (S)-1-[3-(1H-indazole-1-yl)pyridine-2-yl]-2-(5-fluoropyridine-2-yl)-ethan-1-amine hydro-chloride], the results for the negative-log IC50 (pIC50) at HCN2 [2] and on HCN4 were 6.30 and 4.93, respectively.

On to `N[C@@H](Cc1ncccc1F)c1ncccc1-n1ncc2ccccc21` [Example 10, (S)-1-[3-(1H-indazole-1-yl)pyridine-2-yl]-2-(3-fluoropyridine-2-yl)ethan-1-amine hydrochloride], for which the negative-log IC50 (pIC50) is 7.10 against HCN2 [2] and 5.38 against HCN4.

In the case of `Cc1ccc(C#N)nc1C[C@H](N)c1cnccc1-n1ncc2cc(Cl)ccc21` [Example 42, (S)-6-{2-Amino-2-[4-(5-chloro-1H-indazol-1-yl)pyridine-3-yl]-ethyl}-5-methylpyr-idine-2-carbonitrile hydrochloride], on HCN2 [1], the negative-log IC50 (pIC50) is 5.31.

Regarding `CN(C)C(=O)c1cccc(C[C@H](N)c2ncccc2-n2ncc3ccccc32)n1` [Example 8, (S)-6-{2-[3-(1H-ind-azol-1-yl)pyridine-2-yl]-2-aminoethyl}-N,N-dimethylpyridine-2-carboxamide hydro-chloride], the negative logarithm of the IC50 (pIC50) at HCN2 [2] is 4.55; at HCN4, under 4.52.

The molecule `Cc1ccc(F)c(C[C@H](N)c2ncccc2-n2ncc3cc(Cl)ccc32)n1` [Example 44, (S)-1-[3-(5-Chloro-1H-indazole-1-yl)pyridine-2-yl]-2-(3-fluoro-6-methylpyridine-2-yl)-ethan-1-amine hydro-chloride] had a negative logarithm of the IC50 (pIC50) on HCN2 [1] of 5.82.
